The source of these data is patent US12558376B2, “Tissue repair by activated cells” (TECHNION RESEARCH & DEVELOPMENT FOUNDATION LIMITED, priority 2018, dated 2026).

Test [1] concerns mesenchymal stem cells (MSCs). The experiment in a line: Cytokine array of MSC conditioned medium (secretome). To be noted: gemcitabine-activated vs untreated MSCs. Type of test: cell-based, human. The method, then:
Human bone marrow MSCs (LONZA, Switzerland) were cultured in minimum essential medium-alpha (αMEM) supplemented with 10% FBS 1% L-glutamine, 1% sodium-pyruvate, and 1% streptomycin. Medium was replaced every 3 days, and cells were maintained in culture for up to 7 passages.
After 72 hours, CM was collected.
The signals corresponding to each factor in the array were quantified by densitometry analysis.

A further test concerns PANC1 tumors. The experiment in a line: Subcutaneous PANC1 tumors treated with gemcitabine: MSC homing. In kind it is in vivo. The conditions noted are these: PANC1 tumors in SCID mice, gemcitabine 500 mg/kg, after 72 hours; for MSC homing to tumors and proximity to CSCs (immunostaining): vs untreated control. How it is done:
Eight-to-ten-week-old SCID mice were subcutaneously implanted with PANC1 cells (n=5 mice/group). […] Nuclei were stained with DAPI (blue). Red arrows represent CSCs whereas white arrows represent MSCs. Scale bar, 100 μm. FIG. 1B: Right Left side is a graph showing the distance between MSCs and CSCs as was measured and plotted (n>15 fields/group) and FIG. 1B left-right side is a graph showing the percentage of MSCs in tumor single cell suspensions was quantified by flow cytometry. […] After 3 days, the percentage of TICs in culture was assessed by flow cytometry. The use of animals and experimental protocols were approved by the Animal Care and Use Committee of the Technion. Human PANC1 (5×10^6 cells) were subcutaneously injected into the flank of eight-to-ten-week-old CB.17 female SCID mice (Harlan, Israel). Tumor size was assessed regularly with Vernier calipers using the formula width^2×length×0.5. […] Tumors or […] were embedded in […], Japan) and subsequently frozen at -80° C. […] Sections were fixed in cold acetone for 15 minutes. CSCs were stained with PE-conjugated antibodies against human prominin-1 (CD133, 1:250, Macs MiltenyiBiotec). […] Tumor sections were analyzed with a camera attached to an inverted microscope (Leica CTR 6000) using Leica Application suite Version 3.4.0 software or a LSM 700 Zeiss confocal microscope (Zeiss, Germany). Nuclei were stained with DAPI (Electron Microscopy Sciences, PA, USA).

`Nc1ccn([C@@H]2O[C@H](CO)[C@@H](O)C2(F)F)c(=O)n1` [gemcitabine]: in test [1], the “CXCL10 secretion in conditioned medium of MSCs” value was “highly elevated”. In the test with PANC1 tumors, the “recruitment of MSCs to pancreatic tumors (percentage of MSCs, flow cytometry)” value is “massive recruitment of MSCs”; the “MSC homing to tumors and proximity to CSCs (immunostaining)” value is “MSCs home to tumors and locate in close proximity to CSCs”. Moreover, the “MSC homing to tumors and proximity to CSCs (immunostaining)” value in the test on PANC1 tumors (listed as Gemcitabine) is reported as “promotes MSCs homing to tumors”.
